Key:
[1] = Research on compound microsome: prototype remaining and transformation to Atrasentan in human liver microsomes (+NADPH); format: in vitro ADME; details: for Prototype remaining quantity (%) Mean: human liver microsome (+NADPH), 37° C.
Experimental: Human liver microsomes were all purchased from Rild Liver Disease Research (Shanghai) Co., Ltd.
Reagents: dimethyl sulfoxide (DMSO), acetonitrile, formic acid, and propranolol (internal standard) are all commercially available.
Instrument: Thermo Fisher Scientific LC-MS (U300 UPLC, TSQ QUANTUMN ULTRA triple quadrupole mass spectrometer).
A certain amount of compound was precisely weighed and dissolved in DMSO to prepare a 10 mM stock solution, and the stock solution was diluted with a diluent (ACN:H2O=1:1) to a 100 μM working solution, and then diluted with a 0.1 M potassium phosphate buffer solution to a 3 μM administration solution for later use. 75 μL of liver microsomes were taken and added into 925 μL of a 0.1 M potassium phosphate buffer solution to be mixed uniformly to obtain a 1.5 mg/mL liver microsome suspension, and the liver microsome suspension was pre-incubated at 37° C. for 10 minutes. Preparation at 0 o'clock: 15 μL of the above liver microsome suspension was taken and added into a 6 mM NADPH solution, 150 μL of a propranolol acetonitrile solution was added immediately for precipitation, and then 15 μL of the above administration solution was added and mixed uniformly for later use. Preparation of samples at 20 minutes and 60 minutes: 15 μL of the administration solution was taken, 15 μL of the liver microsome suspension and 15 μL of the 6 mM NADPH solution were added and mixed uniformly, and a mixture was incubated at 37° C. for 20 minutes and 60 minutes, respectively. The preparation of the above samples was carried out using dual-pore parallel operation. When the above samples are incubated to the relevant time point, 150 μL of the propranolol acetonitrile solution was added to terminate the reaction. All the above samples were centrifuged at 4000 rpm for 5 minutes, and 100 μL of a supernatant was taken, added into 100 μL of ultrapure water and mixed uniformly for LC-MS/MS analysis. LC-MS/MS detection conditions are as follows:
Chromatographic column: Waters ACQUITY™ PREMIER HSS T3, 50*2.1 mm, 1.8 μm.
(§1) Mobile phase: water (0.1% formic acid)—acetonitrile. Perform gradient elution according to the table below.
An initial 0 o'clock was taken as 100%, a relative residual content of the drug at each time point was calculated, and each time point of Atrasentan was taken as 100% to calculate the relative amount of transformation of the compound in the embodiment to Atrasentan.

[2] = Pharmacokinetic study of compound in rats (Embodiment 13), intragastric administration; format: in vivo; details: SD rats
Excerpt: SD rats: male, 200-300 g, purchased from Beijing Vital River Laboratory Animal Technology Co., Ltd.
Reagents: dimethyl sulfoxide (DMSO), polyethylene glycol 400 (PEG-400), normal saline, heparin, acetonitrile, formic acid, and propranolol (internal standard) are all commercially available.
Instrument: Thermo Fisher Scientific LC-MS/MS (U300 UPLC, TSQ QUANTUMN ULTRA triple quadrupole mass spectrometer).
The compound was weighed and dissolved in a DMSO-PEG-400-normal saline (5:60:35, v/v/v) system. After intragastric administration to rats, 200 μL of venous blood was collected in a sodium-fluoride heparinized EP tube at 15 minutes, 30 minutes, 1 hour, 2 hours, 5 hours, 7 hours, and 24 hours after administration and centrifuged at 12000 rpm for 2 minutes. Plasma was taken and frozen and preserved at −80° C. for testing. A certain amount of samples for test was precisely weighed and dissolved in DMSO to 2 mg/mL as a stock solution. An appropriate amount of compound stock solution was accurately sucked, and diluted by adding acetonitrile to prepare a standard series solution. 20 μL of each of the above standard series solution was accurately sucked, 180 μL of blank plasma was added, and vortex mixing was performed to prepare plasma samples equivalent to plasma concentrations of 1 ng/mL, 3 ng/mL, 5 ng/mL, 10 ng/mL, 30 ng/mL, 100 ng/mL, 300 ng/mL, 1000 ng/mL, and 3000 ng/mL. Dual sample analysis was performed for each concentration to establish a standard curve. 30 μL of plasma was taken, 200 μL of an acetonitrile solution of internal standard propranolol (50 ng/mL) was added, vortex mixing was performed, then 100 μL of purified water was added, vortex mixing was performed again, a mixture was centrifuged at 4000 rpm for 5 minutes, and a supernatant was taken for LC-MS/MS analysis. LC-MS/MS detection conditions are as follows: Chromatographic column: Waters ACQUITY™ PREMIER HSS T3, 50*2.1 mm, 1.8 μm.
as §1
After LC-MS/MS detection of blood drug concentration, WinNonlin 6.1 software was used to calculate pharmacokinetic parameters using a non compartmental model method.

[3] = Study on stability of salts (chemical stability by HPLC); format: physicochemical
[4] = Study on hygroscopicity by dynamic vapor sorption (DVS); format: physicochemical
Experimental: Hygroscopicity of sulphate, phosphate, hydrochloride, and oxalate was evaluated using a dynamic vapor sorption (DVS). The test collected percentage changes in mass of samples under a constant temperature condition of 25° C. with changes in humidity.

**Q.** Which “Prototype remaining quantity (%) Mean” value ([1]; time 0 min (taken as 100%)) does the source give for `CCCCN(CCCC)C(=O)CN1C[C@H](c2ccc3c(c2)OCO3)[C@@H](C(=O)O)[C@@H]1c1ccc(OC)cc1` [Atrasentan, (2R,3R,4S)-4-(benzo[d][1,3]dioxolan-5-yl)-1-[2-(dibutylamino)-2-oxoethyl]-2-(4-methoxyphenyl)pyrrolidine-3-carboxylic acid, reference compound] here?
**A.** 100.0%

**Q.** What about the “Prototype remaining quantity (%) Mean” value ([1]; time 20 min) of the same compound?
**A.** 83.3%

**Q.** And the “Prototype remaining quantity (%) Mean” value ([1]; time 60 min)?
**A.** 50.3%

**Q.** Which results are given for `CCCCN(CCCC)C(=O)CN1C[C@H](c2ccc3c(c2)OCO3)[C@@H](C(=O)OCOC(=O)OCC)[C@@H]1c1ccc(OC)cc1` [Compound 1, 1-[(ethoxycarbonyl)oxy]methyl-(2R,3R,4S)-4-(benzo[d][1,3]dioxolane-5-yl)-1-[2-(dibutylamine)-2-oxoethyl]-2-(4-methoxyphenyl)pyrrolidine-3-carboxylate]?
**A.** Prototype remaining quantity (%) Mean ([1]; time 0 min (taken as 100%)): 100.0%; Prototype remaining quantity (%) Mean ([1]; time 20 min): 0.5%; Prototype remaining quantity (%) Mean ([1]; time 60 min): 0.7%

**Q.** What does the source list for `CCCCN(CCCC)C(=O)CN1C[C@H](c2ccc3c(c2)OCO3)[C@@H](C(=O)OC(C)OC(=O)OCC)[C@@H]1c1ccc(OC)cc1` (stereo partly drawn) [Compound 2, 1-[(ethoxycarbonyl)oxy]ethyl(2R,3R,4S)-4-(benzo[d][1,3]dioxolane-5-yl)-1-[2-(dibutylamino)-2-oxoethyl]-2-(4-methoxyphenyl)pyrrolidine-3-carboxylate]?
**A.** Prototype remaining quantity (%) Mean ([1]; time 0 min (taken as 100%)): 100.0%; Prototype remaining quantity (%) Mean ([1]; time 20 min): 67.8%; Prototype remaining quantity (%) Mean ([1]; time 60 min): 1.6%

**Q.** With `CCCCN(CCCC)C(=O)CN1C[C@H](c2ccc3c(c2)OCO3)[C@@H](C(=O)OC(C)OC(=O)OC(C)C)[C@@H]1c1ccc(OC)cc1` (stereo partly drawn) [Compound 3, 1-[(isopropoxycarbonyl)oxy]ethyl-(2R,3R,4S)-4-(benzo[d][1,3]dioxolane-5-yl)-1-[2-(dibutylamino)-2-oxoethyl]-2-(4-methoxyphenyl)pyrrolidine-3-carboxylate] as the compound, how does the “Prototype remaining quantity (%) Mean” value ([1]; time 0 min (taken as 100%)) read?
**A.** 100.0%

**Q.** What about the “Prototype remaining quantity (%) Mean” value ([1]; time 20 min) of the same compound?
**A.** 0.04%

**Q.** What about the “Prototype remaining quantity (%) Mean” value ([1]; time 60 min) of the same compound?
**A.** 0.06%

**Q.** And the “Conversion into Atrasentan in human microsomes (in words)” value ([1]; human liver microsomes)?
**A.** fully converted into Atrasentan

**Q.** What about the “Absorption after intragastric administration compared with Atrasentan (in words)” value [2] of the same compound?
**A.** better than that of Atrasentan

**Q.** And the “Exposure level in rats compared with the same dosage of Atrasentan (in words)” value [2]?
**A.** higher than those of the same dosage of Atrasentan

**Q.** Which results are given for `CCCCN(CCCC)C(=O)CN1C[C@H](c2ccc3c(c2)OCO3)[C@@H](C(=O)OC(C)OC(=O)OC)[C@@H]1c1ccc(OC)cc1` (stereo partly drawn) [Compound 4, 1-[(methoxycarbonyl)oxy]ethyl-(2R,3R,4S)-4-(benzo[d][1,3]dioxolane-5-yl)-1-[2-(dibutylamino)-2-oxoethyl]-2-(4-methoxyphenyl)pyrrolidine-3-carboxylate]?
**A.** Prototype remaining quantity (%) Mean ([1]; time 0 min (taken as 100%)): 100.0%; Prototype remaining quantity (%) Mean ([1]; time 20 min): 0%; Prototype remaining quantity (%) Mean ([1]; time 60 min): 0%; Absorption after intragastric administration compared with Atrasentan (in words) [2]: better than that of Atrasentan; Exposure level in rats compared with the same dosage of Atrasentan (in words) [2]: higher than those of the same dosage of Atrasentan

**Q.** Which results are given for `CCCCN(CCCC)C(=O)CN1C[C@H](c2ccc3c(c2)OCO3)[C@@H](C(=O)OC(C)OC(=O)OCCNC)[C@@H]1c1ccc(OC)cc1` (stereo partly drawn) [Compound 5, 1-(((2-(methylamino)ethoxy)carbonyl)oxy)ethyl-(2R,3R,4S)-4-(benzo[d][1,3]dioxolane-5-yl)-1-[2-(dibutylamino)-2-oxoethyl]-2-(4-methoxyphenyl)pyrrolidine-3-carboxylate]?
**A.** Prototype remaining quantity (%) Mean ([1]; time 0 min (taken as 100%)): 100.0%; Prototype remaining quantity (%) Mean ([1]; time 20 min): 0%; Prototype remaining quantity (%) Mean ([1]; time 60 min): 0%

**Q.** Which results are given for `CCCCN(CCCC)C(=O)CN1C[C@H](c2ccc3c(c2)OCO3)[C@@H](C(=O)OC(C)OC(=O)OC[C@@H](O)CO)[C@@H]1c1ccc(OC)cc1` (stereo partly drawn) [Compound 6, 1-((((S)-2,3-dihydroxypropoxy)carbonyl)oxy)ethyl-(2R,3R,4S)-4-(benzo[d][1,3]dioxolane-5-yl)-1-[2-(dibutylamino)-2-oxoethyl]-2-(4-methoxyphenyl)pyrrolidine-3-carboxylate]?
**A.** Prototype remaining quantity (%) Mean ([1]; time 0 min (taken as 100%)): 100.0%; Prototype remaining quantity (%) Mean ([1]; time 20 min): 0.0%; Prototype remaining quantity (%) Mean ([1]; time 60 min): 0.7%

**Q.** With `CCCCN(CCCC)C(=O)CN1C[C@H](c2ccc3c(c2)OCO3)[C@@H](C(=O)OC(C)OC(=O)OCCO)[C@@H]1c1ccc(OC)cc1` (stereo partly drawn) [Compound 8, 1-(((2-hydroxyethoxy)carbonyl)oxy)ethyl-(2R,3R,4S)-4-(benzo[d][1,3]dioxolane-5-yl)-1-[2-(dibutylamino)-2-oxoethyl]-2-(4-methoxyphenyl)pyrrolidine-3--carboxylate] as the compound, how does the “Prototype remaining quantity (%) Mean” value ([1]; time 0 min (taken as 100%)) read?
**A.** 100.0%

**Q.** And the “Prototype remaining quantity (%) Mean” value ([1]; time 20 min)?
**A.** 0.04%

**Q.** What about the “Prototype remaining quantity (%) Mean” value ([1]; time 60 min) of the same compound?
**A.** 0.03%

**Q.** Which results are given for `CCCCN(CCCC)C(=O)CN1C[C@H](c2ccc3c(c2)OCO3)[C@@H](C(=O)OC(C)OC(=O)OC[C@H]2COCCO2)[C@@H]1c1ccc(OC)cc1` (stereo partly drawn) [Compound 9, 1-(((((R)-1,4-dioxane-2-yl)methoxy)carbonyl)oxy)ethyl-(2R,3R,4S)-4-(benzo[d][1,3]dioxolane-5-yl)-1-[2-(dibutylamino)-2-oxoethyl]-2-(4-methoxyphenyl)pyrrolidine-3-carboxylate]?
**A.** Prototype remaining quantity (%) Mean ([1]; time 0 min (taken as 100%)): 100.0%; Prototype remaining quantity (%) Mean ([1]; time 20 min): 0.1%; Prototype remaining quantity (%) Mean ([1]; time 60 min): 0.0%

**Q.** Which “Prototype remaining quantity (%) Mean” value ([1]; time 0 min (taken as 100%)) does the source give for `CCCCN(CCCC)C(=O)CN1C[C@H](c2ccc3c(c2)OCO3)[C@@H](C(=O)OC(C)OC(=O)OC2COC2)[C@@H]1c1ccc(OC)cc1` (stereo partly drawn) [Compound 10, 1-((((oxetane-3-yl)oxy)carbonyl)oxy)ethyl-(2R,3R,4S)-4-(benzo[d][1,3]dioxolane-5-yl)-1-[2-(dibutylamino)-2-oxoethyl]-2-(4-methoxyphenyl)pyrrolidine-3-carboxylate] here?
**A.** 100.0%

**Q.** And the “Prototype remaining quantity (%) Mean” value ([1]; time 20 min)?
**A.** 0.0%

**Q.** And the “Prototype remaining quantity (%) Mean” value ([1]; time 60 min)?
**A.** 0.0%

**Q.** With `CCCCN(CCCC)C(=O)CN1C[C@H](c2ccc3c(c2)OCO3)[C@@H](C(=O)OC(C)OC(=O)OC[C@@H]2COCCO2)[C@@H]1c1ccc(OC)cc1` (stereo partly drawn) [Compound 11, 1-(((((S)-1,4-dioxane-2-yl)methoxy)carbonyl)oxy)ethyl-(2R,3R,4S)-4-(benzo[d][1,3]dioxolane-5-yl)-1-[2-(dibutylamino)-2-oxoethyl]-2-(4-methoxyphenyl)pyrrolidine-3-carboxylate] as the compound, how does the “Prototype remaining quantity (%) Mean” value ([1]; time 0 min (taken as 100%)) read?
**A.** 100.0%

**Q.** What about the “Prototype remaining quantity (%) Mean” value ([1]; time 20 min) of the same compound?
**A.** 0.5%

**Q.** What about the “Prototype remaining quantity (%) Mean” value ([1]; time 60 min) of the same compound?
**A.** 0.0%

**Q.** What does the source list for `CCCCN(CCCC)C(=O)CN1C[C@H](c2ccc3c(c2)OCO3)[C@@H](C(=O)OC(C)OC(=O)OC(C)C)[C@@H]1c1ccc(OC)cc1.O=C(O)C(=O)O` (some centres unmarked) [Oxalate]?
**A.** Stability (in words) ([3]; 25° C./60% RH and 40° C./75% RH, one week): good stability; Purity (area %) ([3]; 25° C./60% RH, one week): 99.39 area %; Purity (area %) ([3]; 40° C./75% RH, one week): 98.52 area %; Purity (area %) ([3]; Start): 99.56 area %; Hygroscopicity (in words) ([4]; 25° C.): lower hygroscopicity; Vapor sorption ([4]; 25° C./80% RH): 0.96%

Reference: US20250320198A1, “SALT OF ENDOTHELIN A (ETA) RECEPTOR ANTAGONIST COMPOUND, AND PREPARATION METHOD THEREFOR AND MEDICAL USE THEREOF” (SHENZHEN SALUBRIS PHARMACEUTICALS CO., LTD, priority 2022, published 2025)
